In patent publication US12234288B2, “Immunogenic arginase 2 polypeptides” (IO Biotech ApS, priority 2018, dated 2025):
Entries after “also recorded” stand apart in the source; their conditions may differ.

How the values were obtained:
[1] = test system: PBMCs (CD4+ and CD8+ T cells); experiment: Intracellular cytokine staining (IFNγ, TNFα) of peptide-stimulated PBMCs by flow cytometry; format: cell-based, human; conditions: for double positive (DP) CD4+ cells: FIG. 6; for intracellular cytokine staining for IFNy and TNFα production: healthy donors and cancer patients with solid tumors, Example 2, FIG. 14B/15D
Procedure: Intracellular staining of cell cultures was performed after PBMCs were stimulated with arginase-derived peptides (or incubated with no peptide as a control) for 5 hours in the presence of BD GolgiPlug™ (added after the first hour of peptide stimulation). Stimulated cells were stained with fluorescently labeled antibodies for surface markers (CD3, CD4, CD8) and thereafter permeabilized by using Fixation/Permeabilization and Permeabilization Buffer (eBioscience, cat. 00-{5123-43), according to manufacturer's instructions. Permeabilized cells were then stained with fluorochrome-labeled antibodies for IFNγ and TNFα. Flow cytometry analysis was performed on a FACSCanto™ II (BD Biosciences). Antibodies used: IFNγ-APC (cat.341117), TNFα-[…] BV421 (cat.562783), CD4-FITC (cat.347413), CD8-PerCP (cat.345774), CD3-APC-H7 (cat. 560275) (all from BD Biosciences), dead cells stain-FVS510 (564406, BD Biosciences) according to manufacturer's instructions.
(§1) Intracellular staining of cell cultures was performed on PBMCs after one week of ARG2-derived peptide stimulation in vitro. For the assay, 9×10^5 PBMCs were re-stimulated with ARG2-derived peptides (or incubated with no peptide as a control) for 5 hours in the presence of BD GolgiPlug™ (added after the first hour of peptide stimulation). Stimulated cells were stained with fluorescently labeled antibodies for surface markers (CD3, CD4, CD8) and thereafter permeabilized by using Fixation/Permeabilization and Permeabilization Buffer (eBioscience, cat. 00-{5123-43), according to manufacturer's instructions. Permeabilized cells were then stained with fluorochrome-labeled antibodies for IFNγ and TNFα. Flow cytometry analysis was performed on a FACSCanto™ II (BD Biosciences). Antibodies used: IFNγ-APC, TNFα-BV421, CD4-PerCP, CD8-FITC, CD3-APC-H7, CD4-FITC, CD8-PerCP, and dead cells stain-FVS510 (all from BD Biosciences) according to manufacturer's instructions. For intracellular cytokine staining to detect cytokine production of ARG2-specific T cells in response to target cells, 5×10^5 ARG2 specific cells were incubated with 2.5×10^5 target cells for 5 hours with GolgiPlug™ added after the first hour.

[2] = test system: ARG2-specific T cells; experiment: ARG2-specific CD4+ T cell culture: IFNy ELISPOT and intracellular cytokine staining toward peptide or target cells; format: cell-based, human; conditions: for recognition of peptide-pulsed cells by ARG2-specific T cells: IFNy ELISPOT, FIG. 17A; for specificity of the ARG2-specific T cell culture to peptide: intracellular cytokine staining for TNFα and IFNy and IFNy ELISPOT, FIG. 16A/B
Procedure: ELISPOT assays with ARG2-specific T cells (effector cells) and various immune or cancer cells as target cells (target cells) were setup by placing 1-5×10^4 effector cells (as indicated) and 1-2.5×10^4 target cells (as indicated) in the bottom of an ELISPOT well. Peptide pulsing of target cells were performed by incubation of cells with 20 μM peptide for lhr followed by two washes to remove unbound peptide. These cells served as positive control. Effector cells plated without target cells served as negative control. All conditions were setup in triplicates or quadruplicates.
as §1
The ARG2-specific T cell culture was established by initial stimulation of PMBCs from a prostate cancer patient with irradiated ARG2-1 loaded autologous mature dendritic cells. The following day IL-12 (20 U/ml) and IL-7 (40 U/ml) was added. PBMCs were restimulated every 8 days with ARG2-1 peptide loaded autologous DCs followed by addition of IL-2 (120 U/ml) the next day. ARG2-specific T cells were enriched using IFNy enrichment kit (MiltenyiBiotec) after 4 stimulations. Cells were expanded and ARG2-specific T cells were further enriched using CD4+ enrichment kit (MiltenyiBiotec).
For mRNA, DCs or cancer cells were transfected with ARG1-DC-LAMP mRNA, ARG2-DC-LAMP mRNA or control mRNA encoding eGFP using electroporation parameters as previously described. Briefly, cells were washed twice in Opti-MEM medium (Thermo Scientific) and adjusted to a final cell concentration of 9-12×10^6 cells/ml. 350 μl cell suspension was preincubated on ice for 5 minutes before addition of 10 μg mRNA. The cell suspension was then quickly transferred into a 2-mm (cancer cells) or 4-mm (DCs) gap electroporation cuvette and electroporated (ref: OM paper). After electroporation, cells were quickly transferred to a dish with pre-warmed medium and incubated in humidified atmosphere with 5% CO2 before use for different experimental analysis. mRNA transfected cells were rested for 1 hr before they were setup in ELISPOT assay or rested overnight before set up in intracellular cytokine staining assay. Electroporation efficiency was determined 24 hours post transfection by FACS analysis of the GFP transfected cells. […]

| Sequence | double positive (DP) CD4+ cells ([1]; healthy donor Buf-M-01, IFN-gamma and TNF-alfa) | double positive (DP) CD4+ cells ([1]; healthy donor Buf-M-02, IFN-gamma and TNF-alfa) | intracellular cytokine staining for IFNy and TNFα production [1] | CD8+ T cell response in intracellular cytokine staining ([1]; one cancer patient, FIG. 9) | CD8+ DP cells ([1]; prostate cancer patient UR12, control 0.5%, FIG. 9) | CD4+ T cell response in intracellular cytokine staining ([1]; two healthy donors, Example 1, FIG. 6) | recognition of peptide-pulsed cells by ARG2-specific T cells ([2]; MONO-MAC-1 cells) | recognition of peptide-pulsed cells by ARG2-specific T cells ([2]; OCI-AML2 cells) | recognition of peptide-pulsed cells by ARG2-specific T cells ([2]; THP-1 cells) | specificity of the ARG2-specific T cell culture to peptide [2] |
| --- | --- | --- | --- | --- | --- | --- | --- | --- | --- | --- |
| LQTRVHSILKKSVHSVAVIG (listed as Homo sapiens) [ARG2_1, polypeptide derived from human Arginase2, aa11-30] | 0.2% | 0.1% | primarily showed CD4+ responses | release more of IFN-gamma (y-axis) and TNF-alfa (x-axis) | 0.9% | reacting specifically; also recorded: release both IFN-gamma (y-axis) or TNF-alfa (x-axis) | effectively recognized | effectively recognized | effectively recognized | highly specific |
| SLRGSLSRLLQTRVHSILKKSVHSVAVIGAPFS (listed as Homo sapiens) [A2L2, long ARG2 peptide, aa2-34, 33-mer] |  |  | only CD4+ responses |  |  |  |  |  |  | highly specific |
